# In patent US20110306554A1, “PEPTIDE CAPABLE OF BINDING TO IMMUNOGLOBULIN” (priority 2009, published 2011):
# Entries after “also recorded” stand apart in the source; their conditions may differ. Non-standard residues stand in square brackets, D forms with d. No end group written: not given here.
# How the values were obtained:
# [1] = tested on: Cy3-labeled goat anti-mouse immunoglobulin (IgG); experiment: Peptide array of C1q subunit 15-mers probed with Cy3-labeled immunoglobulin; type: binding; details: peptide spots on glass array, 4° C., 12 hours, background fluorescence intensity is 2.6
# From the text: The amino acid sequences of the A, B, and C subunit chains of human C1q, are shown in SEQ ID NOs: 17 to 19, and the nucleotide sequences in SEQ ID NOs: 20 to 22. Based on each of the amino acid sequences, sequences having 15 amino acids (residues) from each subunit and shifted at intervals of three amino acids, were synthesized on a glass array as synthetic peptides (Peptide Nos. 1 to […], and 193 to 270 for the A, B, and C chains, respectively). The synthesis of each peptide was carried out at a specific location on the array, so as to prepare a peptide array which included the synthetic peptides covering the entire amino acid sequences of the subunits of C1q. The preparation of the array was outsourced to JPT Peptide Technologies GmbH.
# To the peptide array was applied 330 μl of an Cy3-labeled goat anti-mouse immunoglobulin (IgG) (1 mg/ml; Zymed Laboratories) diluted 1000-fold with PBS (10 mM phosphate buffer, pH 7.0, 0.1 M NaCl), and the array was sealed and then incubated at 4° C. for 12 hours. After that, the array was washed once with methanol and then 5 times with Milli-Q water for 5 minutes each. The array slide was centrifuged and dried, and scanned with a fluorescence scanner (Agilent DNA microarray scanner; Agilent Technologies), so that fluorescence intensity was quantified at the respective peptide spots on the array using a software (Feature Extraction software; Agilent Technologies). Several spots displaying strong fluorescence intensities were detected. […] Note that in the description, the amino acids are denoted by the one-letter code known in the art.
# [2] = tested on: Monoclonal antibody cocktail-induced arthritis mice; experiment: Arthritis suppressing effects on arthritis-induced mice, Part 2; type: in vivo; details: 10 mg/kg intraperitoneal twice a day, 14 consecutive days from day 0
# Procedure: Monoclonal antibody cocktail-induced arthritis mice were used to examine arthritis suppressing effects of peptides which are indicated as R1, R2, and R5 in Example 2. Arthritis was caused by intravenous administration of 2 mg/mouse of an arthritis-inducing monoclonal antibody cocktail and three days later, intraperitoneal administration of 50 μg/mouse of LPS. The peptides were administered at a dose of 10 mg/kg twice a day for a period of 14 consecutive days from the day of administration of the arthritis-inducing monoclonal antibody cocktail (day 0), and arthritis suppressing effect was examined in terms of clinical score. Experiments were carried out in a similar way to those in the section (1) in Example 3.
# The required amount was calculated for each peptide, based on the animal weight. Each peptide solution was prepared to make a concentration of 1 mg/ml in a 0.5% methyl cellulose solution, and the prepared peptide solution was cold stored.
# Measurement of body weight of animals was made on days 0, 3, 6, 9, 12, and 14 during the study period, with day 0 being the day of administration of the arthritis-inducing monoclonal antibody cocktail. Observation of general condition was made on a daily basis.
# Mice were weighed on the day prior to start of administration and randomly assigned to groups using a grouping software, so that the average body weight values of the groups were approximately equal. To twenty 7-week-old mice, the arthritis-inducing monoclonal antibody cocktail was intravenously administered at a dose of 2 mg/mouse on day 0, and LPS was intraperitoneally administered at a dose of 50 μg/mouse on day 3.
# Each peptide solution was given via intraperitoneal administration twice a day, morning and afternoon, from day 0. As a control, a 0.5% solution of methyl cellulose was intraperitoneally administered twice a day from day 0. A needle (26G; Terumo) and a syringe (1.0-ml capacity; Terumo) were used for administration. […]
# Results of examinations were expressed by mean value±standard error and analyzed using EXSAS (Version 7.1.6, Arm Systex Co., Ltd.). […]
# [3] = tested on: type III allergic (Arthus) reaction-induced rats; experiment: Immune-complex disease suppression in type III allergic (Arthus) reaction-induced rats, Part 1; type: in vivo
# Procedure: Using sixty-four 7-week-old male Slc:Wistar rats, examinations were made on peptides R1, R2, and R5, in two series of examinations, each using a different method of administration (intraperitoneal administration and tail vein administration). Acclimation was carried out by giving normal solid chow CRF-1 for a period of 9 days or longer. The back of the animals was shaved on the day prior to administration, and a mixed solution of OVA and Evans blue dye was administered into the tail vein on the day of administration. Each peptide solution was administered intraperitoneally or into the tail vein 30 minutes or 50 minutes after the administration of the mixed solution of OVA and Evans blue dye, respectively. For intracutaneous administration of an anti-OVA solution, […] was intracutaneously administered in the back of animals at a dose of 0.1 ml/site 30 minutes or 10 minutes after the administration of the tested substance in the case of intraperitoneal or intravenous administration, respectively, so as to generate a local Arthus reaction. After the reaction was allowed to be generated for 4 hours, the animals were euthanized, the blood was removed thoroughly, and then the dorsal skin was exfoliated. The Arthus reaction sites on the exfoliated skin were punched out, and the Evans blue dye was extracted from the punched skin overnight. The amount of dye leakage was quantified by measuring absorbance for the Evans blue dye with a spectrophotometer and using a calibration curve (see, H. Okamoto, Y. Iwahisa, and M. Terasawa, “Suppression of the Arthus reaction by Y-24180, a potent and specific antagonist of platelet-activating factor”, Agents Actions, 35:149-158 (1992), for experimental procedures used in Example 4).
# A predetermined amount of each peptide (peptides R1, R2, and R5) was dissolved in physiological saline to make a 20 mg/ml solution. A 2 mg/ml solution was prepared by diluting the 20 mg/ml solution 10-fold with physiological saline. A 5 mg/ml solution was prepared by dissolving each peptide in a predetermined amount in physiological saline to make a prepared solution.
# A mixed solution of OVA and Evans blue dye was administered into the tail vein at a dose of 2 ml/kg. Each peptide solution was administered intraperitoneally or into the tail vein 30 minutes or 50 minutes after the administration of the mixed solution of OVA and Evans blue dye, respectively. For intracutaneous administration of an anti-OVA solution, […] was intracutaneously administered in the back of animals at a dose of 0.1 mL/site 30 minutes or 10 minutes after the administration of the tested substance in the case of intraperitoneal or intravenous administration, respectively, so as to generate a local Arthus reaction. Intracutaneous administration was conducted at 2 sites for PBS and at 2 sites for the anti-OVA solution per animal. After the reaction was allowed to be generated for 4 hours, the animals were euthanized by decapitation under ether anesthesia, the blood was removed thoroughly, and then the dorsal skin was exfoliated. The Arthus reaction sites on the exfoliated skin were punched out and subjected to dye extraction.
# Several cuttings were made in the skin strips that were punched out with a punch. […] The amount of dye leakage was calculated from a calibration curve of known amounts of the dye.
# The mean value (mean)±standard deviation (SD) for each group was calculated with body-weight measurements and amounts of dye leakage. […]
# [4] = tested on: Monoclonal antibody cocktail-induced arthritis mice; experiment: Arthritis suppressing effects on arthritis-induced mice, Part 4; type: in vivo; details: intraperitoneal 100 mg/kg once a day from day 4; methotrexate 0.1 mg/kg
# Procedure: Monoclonal antibody cocktail-induced arthritis mice were used to examine arthritis suppressing effects of peptides which are indicated as R13 in the section (3) in Example 2 and as R19 and R21 in the section (4) in Example 2. Arthritis was caused by intravenous administration of 2 mg/mouse of an arthritis-inducing monoclonal antibody cocktail and three days later, intraperitoneal administration of 50 μg/mouse of LPS. The peptides […] days from four days after the administration of the arthritis-inducing monoclonal antibody cocktail, and arthritis suppressing effect was examined in terms of clinical score and hind-limb volume determination.
# The required amount was calculated for each peptide, based on the animal weight. […]
# Measurement of body weight of animals was made on days 0, 3, 6, 9, 12, and 14 during the study period, with day 0 being the day of administration of the arthritis-inducing monoclonal antibody cocktail. Observation of general condition was made on a daily basis. […]
# Results of examinations were expressed by mean value±standard error and analyzed using EXSAS (Version 7.1.6, Arm Systex Co., Ltd.). […] Quantitative data, such as body weights and leg volumes, were subjected to Bartlett's test, followed by Dunnett's multiple comparison test when the variance was uniform or Steel's multiple comparison test when the variance was not uniform.
# [5] = biological target: Cy3-labeled goat anti-mouse immunoglobulin (IgG) (goat); experiment: peptide array on glass, Cy3-labelled goat anti-mouse IgG, fluorescence scanner; background 2.6
# [6] = intraperitoneal administration, 10 or 100 mg/kg
# [7] = tail vein administration, 10 mg/kg
molecule,measurement,setting,value
CKVPGLYYFVYHASH (Immunoglobulin binding peptide) [R6],Fluorescence intensity,[1],"65,313"
CKVPGLYYF (Immunoglobulin binding peptide) [R2],arthritis suppressing effect (clinical score),[2],Arthritis suppressing effects were observed; also recorded: arthritis was suppressed
same,effect of immune-complex disease suppression (dye leakage),[3]; [6],clear and satisfactory effects of immune-complex disease suppression; also recorded: suppressed
same,effect of immune-complex disease suppression (dye leakage),[3]; [7],clear and satisfactory effects of immune-complex disease suppression; also recorded: suppressed
FTCKVPGLYYFTYHA (Immunoglobulin binding peptide) [R4],Fluorescence intensity,[1],"65,311"
dSdTGdKdFdTdSdKdVdPGdLdYdYdF ([dS][dT]G[dK][dF][dT][dS][dK][dV][dP]G[dL][dY][dY][dF]) [R21],arthritis-suppressing effect (clinical score) compared with methotrexate,[4],arthritis-suppressing effect comparable to or greater than that of methotrexate
KFTCKVPGLYYFVYH (Immunoglobulin binding peptide) [compound 245],Fluorescence intensity,[1],"65,311"
SGKFTCKVPGLYYFT (Immunoglobulin binding peptide) [R3],Fluorescence intensity,[1],"65,300"
PGLYYF (Immunoglobulin binding peptide) [R1],arthritis suppressing effect (clinical score),[2],Arthritis suppressing effects were observed; also recorded: arthritis was suppressed
same,effect of immune-complex disease suppression (dye leakage),[3]; [6],clear and satisfactory effects of immune-complex disease suppression; also recorded: suppressed
same,effect of immune-complex disease suppression (dye leakage),[3]; [7],clear and satisfactory effects of immune-complex disease suppression; also recorded: suppressed
SGKFTCKVPGLYYFT [peptide R3 (…)],Fluorescence intensity,[5],65300
FTCKVPGLYYFTYHA [peptide R4 (…)],Fluorescence intensity,[5],65300
STGKFTCKVPGLYYF [peptide R5 (…)],Fluorescence intensity,[5],65300
KFTCKVPGLYYFVYH [Peptide No. 245 (…)],Fluorescence intensity,[5],65300
CKVPGLYYFVYHASH [peptide R6 (…)],Fluorescence intensity,[5],65300
